Data from patent US11390621B2, “Chiral indole compounds and their use” (ARIAGEN, INC., priority 2019, dated 2022).
“And” between values parts separate entries of the source, which are not always exact repeats. Equal values may be shown once. Read-outs that look alike come from different tables or passages of the source.

Legend:
human hepatocytes = experiment: Hepatocyte intrinsic clearance assay (metabolic stability), human hepatocytes; type: in vitro ADME; settings: for EH (hepatic extraction ratio): well stirred liver model, fu=1
Procedure, shortened: (§1)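 Cryopreserved pooled hepatocytes (1×10^6 cells/mL final) incubated with 1 μM compound at 37 °C, 5% CO2; samples at 0–120 min quenched in acetonitrile, analysed by LC-MS in duplicate. t1/2 and CLint from ln(% remaining) vs time slope; CLH via well-stirred liver model (fu=1) and EH derived from it.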

[1] = as above; type: in vitro ADME; settings: male, human, cryopreserved pooled hepatocytes, Human Hepatocytes, 1 μM test compound
Procedure, shortened: as §1

[2] = Hepatocyte intrinsic clearance assay (metabolic stability), rat hepatocytes; type: in vitro ADME; settings: rat, cryopreserved hepatocytes, Rat Hepatocytes, 1 μM test compound
Procedure, shortened: as §1

rat hepatocytes = experiment: as above; type: in vitro ADME; settings: for EH (hepatic extraction ratio): well stirred liver model, fu=1
Procedure, shortened: as §1

CYP3A4 = target: T1, CYP3A4 (Homo sapiens, UniProt P08684); experiment: CYP profiling: human liver microsomes with CYP3A4 inhibitor ketoconazole; type: in vitro ADME; parameters: % Compound Metabolized at 30 min, CYP3A4 Inhibitor: concentration or dose not given beside the values; settings: HLMs; for % Inhibition Relative to Negative Control, 3A4: 30 min
T1 construct: from tissue; host or cells: human liver microsomes
Description: In order to investigate the contributions of CYP1A2 and CYP3A4 to the metabolism of the compounds of the present disclosure, human liver microsomes were incubated with the test compounds for 30 minutes in the presence of selective chemical inhibitors furafylline (1A2) and ketoconazole (3A4).

[3] = In vivo pharmacokinetic studies in rats; parameters: species or system SD rats; settings: rats; for AUC: SD; for AUC(0-t): read-out: AUClast; for Tmax at 1 day: read-out: Tmax
Description: This example describes pharmacokinetic (PK) studies of ARI-164, ARI-165, ARI-186, ARI-224, and ARI-226 in mice and rats. In the present studies, the test compounds were given to groups of mice and/or rats (N=3 in each group), intravenously (IV) at 2 mg/kg or orally (PO) at 10, 30, or 40 mg/kg. ARI-186, ARI-224 and ARI-226 were given orally to rats QD for 5 days at 10 mg/kg to assess whether decreased susceptibility to CYP1A1/1A2 metabolism would lead to increased accumulation. IV doses were formulated in DMSO, while PO doses were formulated in a 50/50 mixture of PEG400 and Tween 80 (single dose mouse and rat studies for ARI-164, ARI-165, ARI-186, ARI-224, ARI-226) or PEG400/Kolliphor HS15/Oleic Acid 45/45/10 (ARI-164 repeat dose rat study). Blood samples were collected at pre-dose and over a period of 24 hours post-dose. Plasma concentrations of the test compounds were determined by HPLC.

[4] = Sprague-Dawley (SD), rat, plasma, po, 10 mg/kg, repeat 10 mg/kg PO QD, Day 1, Mean of 3 animals
[5] = Sprague-Dawley, rat, plasma, po, 10 mg/kg, repeat 10 mg/kg PO QD, Day 1, individual animal
[6] = Sprague-Dawley, rat, plasma, po, 10 mg/kg, repeat 10 mg/kg PO QD, Day 5, Mean
[7] = Sprague-Dawley, rat, plasma, po, 10 mg/kg, repeat 10 mg/kg PO QD, Day 5, individual animal
[8] = repeat 10 mg/kg PO QD, Day 1, individual animal
[9] = repeat 10 mg/kg PO QD, Day 5, individual animal

T1 sequence (P08684 whole entry): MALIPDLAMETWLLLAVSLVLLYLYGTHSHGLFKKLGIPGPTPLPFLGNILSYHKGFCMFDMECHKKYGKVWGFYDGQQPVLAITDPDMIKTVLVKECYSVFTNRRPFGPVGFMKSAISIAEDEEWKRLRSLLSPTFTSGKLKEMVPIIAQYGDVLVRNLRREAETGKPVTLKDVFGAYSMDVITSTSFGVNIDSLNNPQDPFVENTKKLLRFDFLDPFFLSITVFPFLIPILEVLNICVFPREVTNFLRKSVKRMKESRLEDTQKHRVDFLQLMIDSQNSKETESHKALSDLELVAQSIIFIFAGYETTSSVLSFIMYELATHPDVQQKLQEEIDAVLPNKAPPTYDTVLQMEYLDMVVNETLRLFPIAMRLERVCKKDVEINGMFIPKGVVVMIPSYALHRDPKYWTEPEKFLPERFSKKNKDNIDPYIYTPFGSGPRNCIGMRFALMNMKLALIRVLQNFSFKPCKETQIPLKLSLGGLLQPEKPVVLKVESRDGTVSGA

In the case of `CC[C@H](N)c1csc(C(=O)c2c[nH]c3cc(F)ccc23)n1` [ARI-186, (S)-(4-(1-aminopropyl)thiazol-2-yl)(6-fluoro-1H-indol-3-yl)methanone], the CLint (human hepatocytes; Human Hepatocytes, 1 μM test compound) is reported as 1.453 μL/min/10^6 cells, the “EH (hepatic extraction ratio)” value (human hepatocytes; Human Hepatocytes) is reported as 8.7% and the “CLint lower than that of ARI-164 (fold improvement)” value (human hepatocytes; human hepatocytes) is reported as 10.8 ×. For the same compound, the half-life at 1 μM [1] was 7.9 h, the hepatocyte CLint at 1 μM [1] was 1.5 µL/min/1e6 cells and the half-life at 1 μM [2] was 2.8 h. The hepatocyte CLint at 1 μM [2] was 4.1 µL/min/1e6 cells, the CLint (rat hepatocytes; Rat Hepatocytes, 1 μM test compound) was 4.127 μL/min/10^6 cells and the “EH (hepatic extraction ratio)” value (rat hepatocytes; Rat Hepatocytes) was 21.6%. For the same compound, the “CLint lower than that of ARI-164 (fold)” value (rat hepatocytes; rat hepatocytes) was 1.8 ×, the “% Compound Metabolized at 30 min, CYP3A4 Inhibitor” value (CYP3A4) was 12% and the “% Inhibition Relative to Negative Control, 3A4” value (CYP3A4) was 8%. It also gave an AUC ([3]; rat, plasma, po, 10 mg/kg, repeat oral dosing 10 mg/kg QD, read-out: AUC on day 1) of 5940 ng·h/mL, an AUC ([3]; rat, plasma, po, 10 mg/kg, repeat oral dosing 10 mg/kg QD, read-out: AUC on day 5) of 29100 ng·h/mL and an AUC(0-inf) [3, 4] of 6480 ng·h/mL. The Cmax at 1 day [3, 4] was 399 ng/mL, the MRT inf at 1 day [3, 4] was 10.1 h and the MRT last at 1 day [3, 4] was 8.06 h. The half-life at 1 day [3, 4] was 6.04 h, the AUC(0-t) [3, 4] was 5940 ng·h/mL and the Tmax at 1 day [3, 4] was 6.67 h. It also gave an AUC(0-t) ([3]; Sprague-Dawley (SD), rat, plasma, po, 10 mg/kg, repeat 10 mg/kg PO QD, Day 5, individual animal) of 33600 ng·h/mL, an AUC(0-inf) [3, 5] of 6920 ng·h/mL and a Cmax at 1 day [3, 5] of 397 ng/mL. It also gave an MRT inf at 1 day [3, 5] of 10.5 h, an MRT last at 1 day [3, 5] of 8.14 h and a half-life at 1 day [3, 5] of 6.44 h. The AUC(0-t) [3, 5] was 6260 ng·h/mL, the Tmax at 1 day [3, 5] was 8 h and the Cmax at 5 day [3, 6] was 1580 ng/mL. For the same compound, the MRT last at 5 day [3, 6] was 11.5 h, the Tmax at 5 day [3, 6] was 4.67 h and the AUC(0-t) [3, 6] was 29100 ng·h/mL. The Cmax at 5 day [3, 7] was 1610 ng/mL, the MRT last at 5 day [3, 7] was 11.6 h and the “behaviour of exposure after 5 days of repeat dosing (in words)” value ([3]; 10 mg/kg PO QD for 5 days) was “accumulation towards steady state”. The AUCinf [3, 8] was 6000 ng·h/mL and 6510 ng·h/mL, the AUClast [3, 8] was 5400 ng·h/mL and 6150 ng·h/mL and the Cmax [3, 8] was 359 ng/mL and 441 ng/mL. The MRTinf [3, 8] was 10.9 h and 8.93 h, the MRTlast [3, 8] was 8.40 h and 7.63 h and the T1/2 [3, 8] was 6.45 h and 5.22 h. For the same compound, the Tmax [3, 8] was 4 h, the AUClast [3, 9] was 24600 ng·h/mL and the Cmax [3, 9] was 1310 ng/mL and 1810 ng/mL. The MRTlast [3, 9] was 11.4 h, the Tmax [3, 9] was 4 h and the “accumulation (AUC day 5 vs day 1)” value ([3]; repeat oral dosing 10 mg/kg QD) was 4.9 ×.

In the case of `CC[C@H](N)c1csc(C(=O)c2c[nH]c3ccc(F)cc23)n1` [ARI-218], the “EH (hepatic extraction ratio)” value (human hepatocytes; Human Hepatocytes) is reported as 22.2%, the half-life at 1 μM [1] is reported as 1.3 h and the hepatocyte CLint at 1 μM [1] is reported as 9.16 µL/min/1e6 cells. For the same compound, the half-life at 1 μM [2] was 1 h, the hepatocyte CLint at 1 μM [2] was 11.1 µL/min/1e6 cells and the “EH (hepatic extraction ratio)” value (rat hepatocytes; Rat Hepatocytes) was 42.5%. For the same compound, the “% Compound Metabolized at 30 min, CYP3A4 Inhibitor” value (CYP3A4) was 0% and the “% Inhibition Relative to Negative Control, 3A4” value (CYP3A4) was 100%.

In the case of `CC[C@@H](N)c1csc(C(=O)c2c[nH]c3ccc(F)cc23)n1` [ARI-219], the “EH (hepatic extraction ratio)” value (human hepatocytes; Human Hepatocytes) is reported as 11.5%, the half-life at 1 μM [1] is reported as 5.3 h and the hepatocyte CLint at 1 μM [1] is reported as 2.17 µL/min/1e6 cells. The half-life at 1 μM [2] was 0.5 h, the hepatocyte CLint at 1 μM [2] was 21.4 µL/min/1e6 cells and the “EH (hepatic extraction ratio)” value (rat hepatocytes; Rat Hepatocytes) was 58.9%. The “% Compound Metabolized at 30 min, CYP3A4 Inhibitor” value (CYP3A4) was 23% and the “% Inhibition Relative to Negative Control, 3A4” value (CYP3A4) was “None”.

With `CC(C)(O)c1csc(C(=O)c2c[nH]c3cc(F)ccc23)n1` [ARI-220, (6-fluoro-1H-indol-3-yl)(4-(2-hydroxypropan-2-yl)thiazol-2-yl)methanone] the “EH (hepatic extraction ratio)” value (human hepatocytes; Human Hepatocytes) was 21.6%, the half-life at 1 μM [1] was 1.4 h and the hepatocyte CLint at 1 μM [1] was 8.33 µL/min/1e6 cells. For the same compound, the half-life at 1 μM [2] was 2.4 h, the hepatocyte CLint at 1 μM [2] was 4.77 µL/min/1e6 cells and the “EH (hepatic extraction ratio)” value (rat hepatocytes; Rat Hepatocytes) was 24.2%. The “% Compound Metabolized at 30 min, CYP3A4 Inhibitor” value (CYP3A4) was 27% and the “% Inhibition Relative to Negative Control, 3A4” value (CYP3A4) was 34%.

In the case of `O=C(c1nc(C2(O)CC2)cs1)c1c[nH]c2cc(F)ccc12` [ARI-221, (6-fluoro-1H-indol-3-yl)(4-(1-hydroxycyclopropyl)thiazol-2-yl)methanone], the “EH (hepatic extraction ratio)” value (human hepatocytes; Human Hepatocytes) is reported as 27.3%, the half-life at 1 μM [1] is reported as 0.5 h and the hepatocyte CLint at 1 μM [1] is reported as 25.3 µL/min/1e6 cells. For the same compound, the half-life at 1 μM [2] was 2.1 h, the hepatocyte CLint at 1 μM [2] was 5.55 µL/min/1e6 cells and the “EH (hepatic extraction ratio)” value (rat hepatocytes; Rat Hepatocytes) was 27.1%. The “% Compound Metabolized at 30 min, CYP3A4 Inhibitor” value (CYP3A4) was 82% and the “% Inhibition Relative to Negative Control, 3A4” value (CYP3A4) was 14%.
